According to US7322965B2, “Infection-resistant medical devices” (priority 2002, dated 2008):
Converted amounts (≈) assume the structure as drawn. Where two headings read alike, the source gives them in different places.

Assays:
Format in all cases: cell-based
S. epidermidis UC-20208 [1] = assay: Determination of minimum inhibitory concentration (microdilution); settings: Staphylococcus epidermidis, UC20208, 18 h, read-out: MIC (minimum inhibitory concentration)
S. hominis SP2 = assay: Microtiter-plate adherence assay on polystyrene, nonadherent reference strain; settings: data not shown
Protocol: Briefly, the inoculum was established by the direct colony suspension method using the Prompt™ Inoculation System (Becton Dickinson, Sparks, Md.). The bacteria suspension, which was equal to the turbidity of a 0.5 McFarland standard, was diluted in TSB to a concentration of 1×10^6 colony forming units per ml (CFU/mL). One hundred microliters of the cell suspension was added to flat-bottom polystyrene wells (Corning Costar, Corning, N.Y.) containing 100 μl of TSB, with and without drug. The final inoculum concentration per well was approximately 5×10^5 CFU/mL. The plates were incubated at 37° C. under static conditions in air. At 18 hours (h) post-infection, the optical density of bacterial growth was measured at a wavelength of 595 nm in a microtiter plate reader (Vmax; Molecular Devices, Sunnyvale, Calif.). […] The optical density of bacterial adherence was determined at a wavelength of 550 nm. […] To compensate for background absorbance, optical density readings from wells treated with sterile medium, fixative and stain as described above were averaged and then subtracted from all test and control wells. […]
Reliability of the microtiter-plate adherence assay was assessed with the reference strains S. hominis SP2 (nonadherent) and S. epidermidis RP62A (strongly adherent). The median optical density readings for SP2 and RP62A were 0.059±0.004 and 2.789±0.266, respectively. […]

S. epidermidis RP62A = assay: Time course adherence assay (prophylactic and delayed treatment); settings: for inhibition at 1 µg/mL / inhibition at 2 µg/mL / inhibition at 4 µg/mL / inhibition at 8 µg/mL: Staphylococcus epidermidis, read-out: Percent inhibition of bacterial adherence relative to controls
Protocol: (§1) Drug effects on bacterial adherence were measured 18 hours after treatment initiation using a quantitative spectrophotometric assay.
(§2) Relative inhibition of adherence was expressed by the following equation: (OD of control well−OD of treated well/OD of control well)×100, where OD is the mean optical density of six replicate wells from two separate experiments (three replicates per experiment). Control was defined as infected, drug-free cultures.
(§3) The primary efficacy variable in this study was the measurement of adherent bacteria to polystyrene surfaces after 18 hours to 24 hours of growth. To determine whether statistically significant differences existed between treatments (4×MIC, 2×MIC, MIC, and ½ MIC) compared with the infected-nontreated controls, multiple comparisons according to Dunnett's test (Montgomery, Design and Analysis of Experiments (1991)) were applied for each clinical strain. Differences were considered statistically significant when p<0.05.

S. epidermidis UC-20208 [2] = assay: as above; settings: for inhibition at 1 µg/mL / inhibition at 2 µg/mL / inhibition at 4 µg/mL / inhibition at 8 µg/mL: Staphylococcus epidermidis, read-out: Percent inhibition of bacterial adherence relative to controls; for Mean OD550: UC-20208
Protocol: as §1, §2, §3

S. epidermidis UC-20207 = assay: Determination of minimum inhibitory concentration (microdilution); settings: Staphylococcus epidermidis, UC20207, 18 h, read-out: MIC (minimum inhibitory concentration)
[3] = 1.0 μg/ml, treatment 0 h post-infection
[4] = 1.0 μg/ml, treatment 2 h post-infection
[5] = 1.0 μg/ml, treatment 4 h post-infection
[6] = 1.0 μg/ml, treatment 6 h post-infection
[7] = 2.0 μg/ml (MIC), treatment 0 h post-infection
[8] = 2.0 μg/ml (MIC), treatment 2 h post-infection
[9] = 2.0 μg/ml (MIC), treatment 4 h post-infection
[10] = 2.0 μg/ml (MIC), treatment 6 h post-infection
[11] = 4.0 μg/ml, treatment 0 h post-infection
[12] = 4.0 μg/ml, treatment 2 h post-infection
[13] = 4.0 μg/ml, treatment 4 h post-infection
[14] = 4.0 μg/ml, treatment 6 h post-infection
[15] = 8.0 μg/ml, treatment 0 h post-infection
[16] = 8.0 μg/ml, treatment 2 h post-infection
[17] = 8.0 μg/ml, treatment 4 h post-infection

## CN[C@H](CC(C)C)C(=O)N[C@H]1C(=O)N[C@@H](CC(N)=O)C(=O)N[C@H]2C(=O)N[C@H]3C(=O)N[C@H](C(=O)N[C@H](C(=O)O)c4cc(O)cc(O)c4-c4cc3ccc4O)[C@H](O)c3ccc(c(Cl)c3)Oc3cc2cc(c3O[C@@H]2O[C@H](CO)[C@@H](O)[C@H](O)[C@H]2O[C@H]2C[C@](C)(N)[C@H](O)[C@H](C)O2)Oc2ccc(cc2Cl)[C@H]1O [Vancomycin]
S. epidermidis UC-20208 [1]
  MIC: 2 µg/mL (≈ 1.38 µM)
S. hominis SP2
  promotion of adherence of the nonadherent strain: Neither linezolid nor vancomycin promoted adherence
S. epidermidis RP62A; [3]
  Mean OD550: 0.664 ± 0.632
S. epidermidis RP62A; [4]
  Mean OD550: 1.147 ± 0.527
S. epidermidis RP62A; [5]
  Mean OD550: 2.311 ± 0.318
S. epidermidis RP62A; [6]
  Mean OD550: 2.202 ± 0.238
S. epidermidis RP62A; [7]
  Mean OD550: 0.002 ± 0.002
S. epidermidis RP62A; [8]
  Mean OD550: 0.000 ± 0.001
S. epidermidis RP62A; [9]
  Mean OD550: 1.312 ± 0.936
S. epidermidis RP62A; [10]
  Mean OD550: 2.114 ± 0.439
S. epidermidis RP62A; [11]
  Mean OD550: 0.002 ± 0.002
S. epidermidis RP62A; [12]
  Mean OD550: 0.000 ± 0.002
S. epidermidis RP62A; [13]
  Mean OD550: 0.003 ± 0.004
S. epidermidis RP62A; [14]
  Mean OD550: 1.562 ± 0.573
S. epidermidis RP62A; [15]
  Mean OD550: 0.001 ± 0.001
S. epidermidis RP62A; [16]
  Mean OD550: 0.000 ± 0.001
S. epidermidis RP62A; [17]
  Mean OD550: 0.004 ± 0.004
S. epidermidis RP62A; 8.0 μg/ml, treatment 6 h post-infection
  Mean OD550: 0.025 ± 0.030
S. epidermidis RP62A; 0 h
  inhibition at 1 µg/mL: 69.3%
  inhibition at 2 µg/mL: 99.9%
  inhibition at 4 µg/mL: 99.9%
  inhibition at 8 µg/mL: 99.9%
S. epidermidis RP62A; 2 h
  inhibition at 1 µg/mL: 41.4%
  inhibition at 2 µg/mL: 100%
  inhibition at 4 µg/mL: 100%
  inhibition at 8 µg/mL: 100%
S. epidermidis RP62A; 4 h
  inhibition at 1 µg/mL: 0%
  inhibition at 2 µg/mL: 29.4%
  inhibition at 4 µg/mL: 99.8%
  inhibition at 8 µg/mL: 99.8%
S. epidermidis RP62A; 6 h
  inhibition at 1 µg/mL: 0%
  inhibition at 2 µg/mL: 0%
  inhibition at 4 µg/mL: 19%
  inhibition at 8 µg/mL: 98.7%
S. epidermidis UC-20208 [2]; UC20208, 0 h
  inhibition at 1 µg/mL: 0%
  inhibition at 2 µg/mL: 99.9%
  inhibition at 4 µg/mL: 99.9%
  inhibition at 8 µg/mL: 99.9%
S. epidermidis UC-20208 [2]; UC20208, 2 h
  inhibition at 1 µg/mL: 0%
  inhibition at 2 µg/mL: 99.1%
  inhibition at 4 µg/mL: 100%
  inhibition at 8 µg/mL: 100%
S. epidermidis UC-20208 [2]; UC20208, 4 h
  inhibition at 1 µg/mL: 0%
  inhibition at 2 µg/mL: 0%
  inhibition at 4 µg/mL: 85.1%
  inhibition at 8 µg/mL: 99.6%
S. epidermidis UC-20208 [2]; UC20208, 6 h
  inhibition at 1 µg/mL: 0%
  inhibition at 2 µg/mL: 0%
  inhibition at 4 µg/mL: 0%
  inhibition at 8 µg/mL: 0%
S. epidermidis UC-20208 [2]; [3]
  Mean OD550: 1.865 ± 0.309
S. epidermidis UC-20208 [2]; [4]
  Mean OD550: 1.865 ± 0.435
S. epidermidis UC-20208 [2]; [5]
  Mean OD550: 1.752 ± 0.566
S. epidermidis UC-20208 [2]; [6]
  Mean OD550: 1.127 ± 0.463
S. epidermidis UC-20208 [2]; [7]
  Mean OD550: 0.001 ± 0.000
S. epidermidis UC-20208 [2]; [8]
  Mean OD550: 0.014 ± 0.036
S. epidermidis UC-20208 [2]; [9]
  Mean OD550: 2.414 ± 0.558
S. epidermidis UC-20208 [2]; [10]
  Mean OD550: 1.281 ± 0.555
S. epidermidis UC-20208 [2]; [11]
  Mean OD550: 0.001 ± 0.001
S. epidermidis UC-20208 [2]; [12]
  Mean OD550: 0.000 ± 0.001
S. epidermidis UC-20208 [2]; [13]
  Mean OD550: 0.239 ± 0.261
S. epidermidis UC-20208 [2]; [14]
  Mean OD550: 1.555 ± 0.206
S. epidermidis UC-20208 [2]; [15]
  Mean OD550: 0.001 ± 0.001
S. epidermidis UC-20208 [2]; [16]
  Mean OD550: 0.000 ± 0.001
S. epidermidis UC-20208 [2]; [17]
  Mean OD550: 0.006 ± 0.002
S. epidermidis UC-20207
  MIC: 2 µg/mL (≈ 1.38 µM)
